The conditions of data set [1]: pH = 7.4, [Fe3+] = 1.0 × 10^−6 mol dm^−3, [L] = 1.0 × 10^−5 mol dm^−3, cited from earlier work.
The conditions of data set [2]: cited from earlier work; for pFe: bidentate donor group, ref [17]–[20]; for K2 (proton independent stepwise formation constant): second ligand; for K3 (proton independent stepwise formation constant): third ligand.
Another data set in a line: Literature Fe. The format is binding. Conditions: refs [19], [21]; for Δ1–2: difference K1 − K2 of cited stepwise constants; for Δ2–3: difference K2 − K3 of cited stepwise constants.
For data set [3] the following is noted: ref [14]; cited from earlier work.

Structures can show the parent of a compound that is named as a salt. Where two headings read alike, the source gives them in different places. Marks after values point to notes of the source that are not given here.

For the molecule `Cn1cccc(O)c1=O` [1-methyl-3-hydroxypyridin-2-one], the pFe in data set [1] (ref [63]) is listed as 16 ^b.

Take `O=c1[nH]cccc1O` [3,2-HOPO]: in data set [2], the pFe is reported as 16.26. Further, the “K1 (proton independent stepwise formation constant)” value in data set [2] (iron complex, first ligand, ref [19], [21]) was 11.48. Besides, in data set [2] (iron complex, ref [19], [21]), the “K2 (proton independent stepwise formation constant)” value is on record as 9.77 and the “K3 (proton independent stepwise formation constant)” value is on record as 8.01. Further, in “Literature Fe”, the “Δ1–2” value is recorded as 1.71 and the “Δ2–3” value amounted to 1.76.

As for `Oc1cccnc1O` [3-hydroxy-2-pyridinone], the “pKa of the 3-hydroxy-2-pyridinone donor group alone” value in data set [3] is 8.66.

On to `O=C(O)c1ccc(-n2nc(-c3ccccc3O)nc2-c2ccccc2O)cc1` [Deferasirox, deferasirox], for which, in data set [1] (ref [65]), the pFe was 23.5 ^d.

For `Cc1c(O)c(=O)ccn1C` [Deferiprone, 1,2-dimethyl-3-hydroxy-4-pyridinone], the pFe in data set [1] (ref [64]) was 19.4 ^c.

With `CC(=O)N(O)CCCCCNC(=O)CCC(=O)N(O)CCCCCNC(=O)CCC(=O)N(O)CCCCCN` [Deferrioxamine B, desferrioxamine B mesylate], the pFe in data set [1] (ref [67]) is 26.6 ^h.

With `Oc1ccccc1O` [catechol], in data set [2], the pFe was 15.1. In addition, in data set [2] (iron complex, ref [19], [21]), the “K2 (proton independent stepwise formation constant)” value is 15.5 and the “K3 (proton independent stepwise formation constant)” value was 9.4. In the data set “Literature Fe”, the “Δ1–2” value was 4.9 and the “Δ2–3” value is 6.1.

As for “Transferrin: iron transport protein used as pFe comparison”, in data set [1] (ref [66]), the pFe was 23.6 ^e.
